Measured values: paper PMC9283524 (Nature Communications, 2022)
Several values for one entry are separate records, joined by “and”; a condition that tells them apart may be missing. Equal entries are not always repeated. Where two headings read alike, the source gives them in different places.

Legend:
[1] = tested on: ligand-bound nucleotide-free β1-AR–Gs complex; assay type: biochemical, turkey; details: ligand at ~EC90; 10 μM BODIPY FL GTPγS; 25 °C; mean ± SD
Description: To investigate whether ligands with different efficacies have different effects on the stability of the intermediate state, we prepared the complex of ligand-bound β1-AR-Gs (nucleotide-free), and quantified the stability of the intermediate state complex (Fig. 7a). Fluorescently labeled BODIPY-GTPγS binding to the ligand-bound β1-AR–Gs (nucleotide-free) complex eventually leads to the dissociation of the complex to produce the fluorescently labeled product Gαs(BODIPY-GTPγS), which is detected by an increase in fluorescence (the β1-AR–Gαs(BODIPY-GTPγS)–Gβγ intermediate is very transient)[31],[35] […] The data were then fitted by nonlinear association analyses and half-life values (t1/2 = ln 2/k) were calculated based on the rate constant (Fig. 7b–e).
The reaction was initiated by adding 10 μM BODIPY™ FL GTPγS (Invitrogen). Relative fluorescence units (RFU) change was measured every 12 s for a total of 60 min at 25 °C. The BODIPY-GTPγS binding data were fitted to one phase exponential association curves using GraphPad Prism 8.

wild-type turkey β1-AR [2] = target: T1, wild-type turkey β1-AR (Meleagris gallopavo, UniProt P07700); test: cAMP assay, time course, transfected CHO cells; assay type: cell-based; details: for cAMP, time course: WT
T1 sequence (P07700 whole entry): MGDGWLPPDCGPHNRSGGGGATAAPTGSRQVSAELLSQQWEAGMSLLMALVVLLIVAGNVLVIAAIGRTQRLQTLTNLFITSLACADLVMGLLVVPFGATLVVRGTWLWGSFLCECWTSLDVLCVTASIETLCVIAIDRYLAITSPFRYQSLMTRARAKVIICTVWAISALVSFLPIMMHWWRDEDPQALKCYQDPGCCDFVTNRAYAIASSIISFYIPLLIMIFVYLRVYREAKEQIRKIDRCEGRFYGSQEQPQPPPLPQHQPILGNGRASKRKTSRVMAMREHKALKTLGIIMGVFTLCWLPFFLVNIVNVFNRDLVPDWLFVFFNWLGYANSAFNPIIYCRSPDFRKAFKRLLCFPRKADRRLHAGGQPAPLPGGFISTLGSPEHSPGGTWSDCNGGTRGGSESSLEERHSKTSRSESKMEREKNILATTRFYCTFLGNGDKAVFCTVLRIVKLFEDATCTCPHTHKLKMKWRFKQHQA
Method: (§1) CHO cells (transfected with a control empty vector or wild-type or mutant turkey β1-AR) were plated onto six-well plates, and were pre-incubated with culture medium buffered with 0.5 mM IBMX for 30 min at 37 °C[20]. […] After culture medium removal, cells were treated with 0.1 M HCl for 10 minutes at room temperature. After centrifugation, the supernatant was used for cAMP quantification using the Direct Cyclic AMP Enzyme Immunoassay kit (Enzo Life Sciences). […] The cAMP assays were repeated three times, and the data are represented as mean ± SD of the three independent experiments. The analysis was done using the log(agonist) vs. response function of Prism 8 (GraphPad)[20].

turkey β1-AR Q237^5.68A = turkey β1-AR Q237^5.68A (Meleagris gallopavo, UniProt P07700, Q237A); assay type: cell-based; details: for cAMP level: Fig 5c,e source data, Q237A
Chain of turkey β1-AR Q237^5.68A (P07700 whole entry Q237A): as the sequence (P07700 whole entry) above, with Q237A counted along it
Method: as §1

turkey β1-AR E233^5.64A = turkey β1-AR E233^5.64A (Meleagris gallopavo, UniProt P07700, E233A); assay type: cell-based
Chain of turkey β1-AR E233^5.64A (P07700 whole entry E233A): as the sequence (P07700 whole entry) above, with E233A counted along it
Method: as §1

turkey β1-AR F147^ICL2A = turkey β1-AR F147^ICL2A (Meleagris gallopavo, UniProt P07700, F147A); assay type: cell-based
Chain of turkey β1-AR F147^ICL2A (P07700 whole entry F147A): as the sequence (P07700 whole entry) above, with F147A counted along it
Method: as §1

turkey β1-AR V230^5.61A = turkey β1-AR V230^5.61A (Meleagris gallopavo, UniProt P07700, V230A); assay type: cell-based; details: for cAMP level: Fig 5c,e source data, V230A; for cAMP, time course: V2305.61A
Chain of turkey β1-AR V230^5.61A (P07700 whole entry V230A): as the sequence (P07700 whole entry) above, with V230A counted along it
Method: as §1

turkey β1-AR P146^ICL2A = turkey β1-AR P146^ICL2A (Meleagris gallopavo, UniProt P07700, P146A); assay type: cell-based
Chain of turkey β1-AR P146^ICL2A (P07700 whole entry P146A): as the sequence (P07700 whole entry) above, with P146A counted along it
Method: as §1

turkey β1-AR Q150^ICL2A = turkey β1-AR Q150^ICL2A (Meleagris gallopavo, UniProt P07700, Q150A); assay type: cell-based; details: for cAMP level: Fig 5c,e source data, Q150A
Chain of turkey β1-AR Q150^ICL2A (P07700 whole entry Q150A): as the sequence (P07700 whole entry) above, with Q150A counted along it
Method: as §1

turkey β1-AR T291^6.36A = turkey β1-AR T291^6.36A (Meleagris gallopavo, UniProt P07700, T291A); assay type: cell-based; details: for cAMP level: Fig 5c,e source data, T291A
Chain of turkey β1-AR T291^6.36A (P07700 whole entry T291A): as the sequence (P07700 whole entry) above, with T291A counted along it
Method: as §1

turkey β1-AR S151^ICL2A = turkey β1-AR S151^ICL2A (Meleagris gallopavo, UniProt P07700, S151A); assay type: cell-based; details: for cAMP, time course: S151ICL2A
Chain of turkey β1-AR S151^ICL2A (P07700 whole entry S151A): as the sequence (P07700 whole entry) above, with S151A counted along it
Method: as §1

wild-type turkey β1-AR [3] = target: T1, wild-type turkey β1-AR; assay type: cell-based
Method: as §1

[4] = tested on: β1-AR mutants of residues that interact with Gs; test: cAMP assay, dose-response, summary over mutants of Gs-interacting residues; assay type: cell-based, turkey; details: range over mutants, Fig. 5c,d
wild-type turkey β1-AR [5] = target: T1, wild-type turkey β1-AR; details: cited from earlier work
[6] = CHO, 5 min, read-out: Efficacy (% of max cAMP level)

CC(CCc1ccc(O)cc1)NCCc1ccc(O)c(O)c1 (stereo not shown) [Dobutamine, dobutamine]
Complex half-life [1]: 6.9 ± 0.6 min | cAMP, time course (wild-type turkey β1-AR [2]; 0 min): 34 and 32 and 33 | cAMP, time course (wild-type turkey β1-AR [2]; 0.5 min): 35 and 36 and 37 | cAMP, time course (wild-type turkey β1-AR [2]; 1 min): 57 and 46 and 50 | cAMP, time course (wild-type turkey β1-AR [2]; 2 min): 132 and 139 and 131 | cAMP, time course (wild-type turkey β1-AR [2]; 5 min): 335 and 327 and 343 | cAMP, time course (wild-type turkey β1-AR [2]; 10 min): 326 and 316 and 321 | cAMP, time course (wild-type turkey β1-AR [2]; 15 min): 273 and 271 and 269 | cAMP, time course (wild-type turkey β1-AR [2]; 20 min): 179 and 172 and 177 | cAMP, time course (wild-type turkey β1-AR [2]; 25 min): 125 | cAMP signal, time course (wild-type turkey β1-AR [2]; ligand 10^-3 M, time 0 min): 30 and 31 and 29 | cAMP signal, time course (wild-type turkey β1-AR [2]; ligand 10^-3 M, time 0.5 min): 33 and 38 and 31 | cAMP signal, time course (wild-type turkey β1-AR [2]; ligand 10^-3 M, time 1 min): 63 and 68 and 61 | cAMP signal, time course (wild-type turkey β1-AR [2]; ligand 10^-3 M, time 2 min): 163 and 166 and 154 | cAMP signal, time course (wild-type turkey β1-AR [2]; ligand 10^-4 M, time 0 min): 32 and 33 and 28 | cAMP signal, time course (wild-type turkey β1-AR [2]; ligand 10^-4 M, time 0.5 min): 39 and 41 and 34 | cAMP signal, time course (wild-type turkey β1-AR [2]; ligand 10^-4 M, time 1 min): 55 and 61 | cAMP signal, time course (wild-type turkey β1-AR [2]; ligand 10^-4 M, time 2 min): 143 and 151 and 141 | cAMP signal, time course (wild-type turkey β1-AR [2]; ligand 10^-5 M, time 0 min): 29 and 33 and 31 | cAMP signal, time course (wild-type turkey β1-AR [2]; ligand 10^-5 M, time 0.5 min): 34 and 38 and 33 | cAMP signal, time course (wild-type turkey β1-AR [2]; ligand 10^-5 M, time 1 min): 47 and 51 and 49 | cAMP signal, time course (wild-type turkey β1-AR [2]; ligand 10^-5 M, time 2 min): 133 and 145 and 130 | cAMP signal, time course (wild-type turkey β1-AR [2]; ligand 10^-6 M, time 0 min): 30 and 27 | cAMP signal, time course (wild-type turkey β1-AR [2]; ligand 10^-6 M, time 0.5 min): 39 and 37 and 38 | cAMP signal, time course (wild-type turkey β1-AR [2]; ligand 10^-6 M, time 1 min): 54 and 56 and 55 | cAMP signal, time course (wild-type turkey β1-AR [2]; ligand 10^-6 M, time 2 min): 124 and 122 and 120 | cAMP signal, time course (wild-type turkey β1-AR [2]; ligand 10^-7 M, time 0 min): 28 and 33 and 26 | cAMP signal, time course (wild-type turkey β1-AR [2]; ligand 10^-7 M, time 0.5 min): 34 and 36 and 32 | cAMP signal, time course (wild-type turkey β1-AR [2]; ligand 10^-7 M, time 1 min): 37 and 41 and 36 | cAMP signal, time course (wild-type turkey β1-AR [2]; ligand 10^-7 M, time 2 min): 50 and 56 | cAMP signal, time course (wild-type turkey β1-AR [2]; ligand 10^-8 M, time 0 min): 27 and 28 and 26 | cAMP signal, time course (wild-type turkey β1-AR [2]; ligand 10^-8 M, time 0.5 min): 31 and 33 and 29 | cAMP signal, time course (wild-type turkey β1-AR [2]; ligand 10^-8 M, time 1 min): 34 and 37 | cAMP signal, time course (wild-type turkey β1-AR [2]; ligand 10^-8 M, time 2 min): 43 and 44 | cAMP signal, time course (wild-type turkey β1-AR [2]; ligand 10^-9 M, time 0 min): 27 and 31 and 26 | cAMP signal, time course (wild-type turkey β1-AR [2]; ligand 10^-9 M, time 0.5 min): 31 and 36 and 32 | cAMP signal, time course (wild-type turkey β1-AR [2]; ligand 10^-9 M, time 1 min): 32 and 34 and 27 | cAMP signal, time course (wild-type turkey β1-AR [2]; ligand 10^-9 M, time 2 min): 37 and 40 and 35 | time-dependent cAMP response (phases) (wild-type turkey β1-AR [2]; near-saturating concentration (EC90), Fig. 6): a slower signal activation phase and an even slower signal termination phase | EC50 (turkey β1-AR Q237^5.68A): 9.55 µM | Emax (turkey β1-AR Q237^5.68A; [6]): 21 ± 1.7% | cAMP level (turkey β1-AR Q237^5.68A; log[ligand] (M) -3): 103 and 114 and 116 | cAMP level (turkey β1-AR Q237^5.68A; log[ligand] (M) -4): 97 and 112 and 118 | cAMP level (turkey β1-AR Q237^5.68A; log[ligand] (M) -5): 66 and 82 and 77 | cAMP level (turkey β1-AR Q237^5.68A; log[ligand] (M) -6): 39 and 42 | cAMP level (turkey β1-AR Q237^5.68A; log[ligand] (M) -7): 36 and 40 and 39 | cAMP level (turkey β1-AR Q237^5.68A; log[ligand] (M) -8): 34 and 39 and 40 | cAMP level (turkey β1-AR Q237^5.68A; log[ligand] (M) -9): 32 and 37 and 40 | EC50 (turkey β1-AR E233^5.64A): 7.08 µM | Emax (turkey β1-AR E233^5.64A; [6]): 41 ± 3.7% | EC50 (turkey β1-AR F147^ICL2A): 11.5 µM | Emax (turkey β1-AR F147^ICL2A; [6]): 17 ± 0.2% | cAMP level (turkey β1-AR F147^ICL2A; Fig 5c,e source data, F147A, log[ligand] (M) -9): 32 | EC50 (turkey β1-AR V230^5.61A): 6.17 µM | Emax (turkey β1-AR V230^5.61A; [6]): 36 ± 1.1% | cAMP level (turkey β1-AR V230^5.61A; log[ligand] (M) -3): 167 and 175 and 168 | cAMP level (turkey β1-AR V230^5.61A; log[ligand] (M) -4): 164 and 173 and 169 | cAMP level (turkey β1-AR V230^5.61A; log[ligand] (M) -5): 121 and 131 and 129 | cAMP level (turkey β1-AR V230^5.61A; log[ligand] (M) -6): 39 and 44 and 43 | cAMP level (turkey β1-AR V230^5.61A; log[ligand] (M) -7): 36 and 40 and 38 | cAMP level (turkey β1-AR V230^5.61A; log[ligand] (M) -8): 35 and 37 | cAMP level (turkey β1-AR V230^5.61A; log[ligand] (M) -9): 32 and 37 and 36 | cAMP, time course (turkey β1-AR V230^5.61A; 0 min): 30 and 28 and 33 | cAMP, time course (turkey β1-AR V230^5.61A; 0.5 min): 32 and 35 and 38 | cAMP, time course (turkey β1-AR V230^5.61A; 1 min): 34 and 37 and 35 | cAMP, time course (turkey β1-AR V230^5.61A; 2 min): 45 and 41 and 43 | cAMP, time course (turkey β1-AR V230^5.61A; 5 min): 126 and 122 and 128 | cAMP, time course (turkey β1-AR V230^5.61A; 10 min): 106 and 105 and 108 | cAMP, time course (turkey β1-AR V230^5.61A; 15 min): 61 and 56 | cAMP, time course (turkey β1-AR V230^5.61A; 20 min): 52 and 50 and 51 | cAMP, time course (turkey β1-AR V230^5.61A; 25 min): 46 and 44 and 47 | cAMP, time course (turkey β1-AR V230^5.61A; 30 min): 53 and 47 and 55 | EC50 (turkey β1-AR P146^ICL2A): 4.07 µM | Emax (turkey β1-AR P146^ICL2A; [6]): 38 ± 2.4% | EC50 (turkey β1-AR Q150^ICL2A): 3.39 µM | Emax (turkey β1-AR Q150^ICL2A; [6]): 44 ± 3.5% | cAMP level (turkey β1-AR Q150^ICL2A; log[ligand] (M) -3): 192 and 204 and 207 | cAMP level (turkey β1-AR Q150^ICL2A; log[ligand] (M) -4): 178 and 195 and 219 | cAMP level (turkey β1-AR Q150^ICL2A; log[ligand] (M) -5): 151 and 169 and 177 | cAMP level (turkey β1-AR Q150^ICL2A; log[ligand] (M) -6): 58 and 69 and 73 | cAMP level (turkey β1-AR Q150^ICL2A; log[ligand] (M) -7): 36 and 42 and 43 | cAMP level (turkey β1-AR Q150^ICL2A; log[ligand] (M) -8): 36 and 40 | cAMP level (turkey β1-AR Q150^ICL2A; log[ligand] (M) -9): 35 and 37 and 41 | EC50 (turkey β1-AR T291^6.36A): 6.61 µM | Emax (turkey β1-AR T291^6.36A; [6]): 21 ± 1.7% | cAMP level (turkey β1-AR T291^6.36A; log[ligand] (M) -3): 106 and 116 and 114 | cAMP level (turkey β1-AR T291^6.36A; log[ligand] (M) -4): 100 and 115 and 113 | cAMP level (turkey β1-AR T291^6.36A; log[ligand] (M) -5): 82 and 86 and 83 | cAMP level (turkey β1-AR T291^6.36A; log[ligand] (M) -6): 40 and 42 and 41 | cAMP level (turkey β1-AR T291^6.36A; log[ligand] (M) -7): 38 and 39 | cAMP level (turkey β1-AR T291^6.36A; log[ligand] (M) -8): 34 and 39 | cAMP level (turkey β1-AR T291^6.36A; log[ligand] (M) -9): 34 and 36 and 38 | EC50 (turkey β1-AR S151^ICL2A): 10.5 µM | Emax (turkey β1-AR S151^ICL2A; [6]): 38 ± 1.6% | cAMP, time course (turkey β1-AR S151^ICL2A; 0 min): 33 and 34 and 31 | cAMP, time course (turkey β1-AR S151^ICL2A; 0.5 min): 39 and 36 and 32 | cAMP, time course (turkey β1-AR S151^ICL2A; 1 min): 38 and 36 | cAMP, time course (turkey β1-AR S151^ICL2A; 2 min): 41 and 45 and 47 | cAMP, time course (turkey β1-AR S151^ICL2A; 5 min): 104 and 103 | cAMP, time course (turkey β1-AR S151^ICL2A; 10 min): 98 and 96 and 94 | cAMP, time course (turkey β1-AR S151^ICL2A; 15 min): 58 and 63 and 55 | cAMP, time course (turkey β1-AR S151^ICL2A; 20 min): 48 and 49 and 46 | cAMP, time course (turkey β1-AR S151^ICL2A; 25 min): 44 and 46 and 42 | cAMP, time course (turkey β1-AR S151^ICL2A; 30 min): 42 and 49 and 46 | EC50 (wild-type turkey β1-AR [3]): 1.58 µM | Emax (wild-type turkey β1-AR [3]; [6]): 100% | change of EC50 by β1-AR mutations [4]: 2 to 7 fold | reduction of the cAMP response by β1-AR mutations [4]: 17–44% | ligand efficacy class (wild-type turkey β1-AR [5]): partial agonist
